Test results: patent US9486455B2, “Compounds for modulating TRPV3 function” (HYDRA BIOSCIENCES, INC., priority 2007, dated 2016)
pIC50: −log10 of the molar value. Where two headings read alike, the source gives them in different places.

Key:
[1] = molecular target: T1, human (h) TRPV3 (Homo sapiens, UniProt Q8NET8); assay: Whole-cell patch clamp, human TRPV3-mediated currents; type: cell-based;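 also: compounds tested at concentrations up to 30 µM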
T1 construct: expressed in transfected cells; host or cells: HEK293/TREx, tetracycline-induced
T1 sequence (Q8NET8 1-790): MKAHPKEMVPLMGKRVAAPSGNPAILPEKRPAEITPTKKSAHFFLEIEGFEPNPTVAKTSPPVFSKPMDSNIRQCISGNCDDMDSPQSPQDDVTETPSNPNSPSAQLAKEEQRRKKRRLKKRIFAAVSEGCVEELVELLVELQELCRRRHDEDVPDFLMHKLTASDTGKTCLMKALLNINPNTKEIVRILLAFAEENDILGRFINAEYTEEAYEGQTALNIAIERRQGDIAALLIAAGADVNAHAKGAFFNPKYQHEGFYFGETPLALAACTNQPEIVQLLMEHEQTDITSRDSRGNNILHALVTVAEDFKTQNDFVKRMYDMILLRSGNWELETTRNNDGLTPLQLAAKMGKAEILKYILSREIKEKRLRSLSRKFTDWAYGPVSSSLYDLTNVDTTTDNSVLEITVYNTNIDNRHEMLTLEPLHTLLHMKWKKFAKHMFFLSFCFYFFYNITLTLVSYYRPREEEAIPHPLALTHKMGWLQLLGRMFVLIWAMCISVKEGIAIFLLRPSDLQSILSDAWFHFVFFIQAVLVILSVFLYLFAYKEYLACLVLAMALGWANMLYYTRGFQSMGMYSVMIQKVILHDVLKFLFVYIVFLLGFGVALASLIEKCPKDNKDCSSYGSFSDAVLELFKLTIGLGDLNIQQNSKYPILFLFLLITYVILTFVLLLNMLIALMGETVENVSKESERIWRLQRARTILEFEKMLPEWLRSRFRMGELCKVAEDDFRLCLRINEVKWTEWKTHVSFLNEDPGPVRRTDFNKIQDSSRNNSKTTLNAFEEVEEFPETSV
From the text: (§1) Whole-cell patch clamp experiments permit the detection of currents through the TRPV3 channel in the cell line described above. A glass electrode is brought into contact with a single cell and the membrane is then ruptured, permitting control of the voltage of the cell membrane and measurement of currents flowing across the membrane using the amplifier attached to the electrode. A perfusion system permits control of the extracellular solution, including the addition of blockers and activators of the current. The current can be activated by heating this solution to 28° C. or warmer or by addition of 20 μM 2-APB to the solution.
(§2) TRPV3 cells were induced 20-48 hours, removed from growth plates, and replated at low density (to attain good single-cell physical separation) on glass coverslips for measurement. In some cases, cells were grown in low density overnight on glass coverslips. Patch clamp recordings were made in the whole-cell mode with a holding potential of −40 mV. Every 5 seconds, a voltage ramp was applied from −120 to +100 mV, 400 ms in duration. Currents elicited were quantified at −80 mV and +80 mV. The internal solution consisted of 140 mM cesium aspartate, 10 mM EGTA, 2.27 mM MgCl2, 1.91 mM CaCl2 and 10 mM HEPES, pH to 7.2 with KOH; with 50 nM calculated free Ca^2+. External solution was Ringer's solution described above. Upon addition of 2-APB or upon heating of the extracellular solution as described above, TRPV3 current was induced only in TRPV3-expressing cells and not in parental HEK293 TREx cells. […] Removal of the stimulus caused most of the current to go away, and inhibitor addition could still inhibit this current. […]
(§3) P1 refers to the Phase 1 current for human (h) and rat (r) TRPV3, and P2 refers to the Phase 2 current for human (h) and rat (r) TRPV3.

[2] = molecular target: T2, rat (r) TRPV3 (Rattus norvegicus, UniProt Q4QYD9); assay: Whole-cell patch clamp, rat TRPV3-mediated currents; type: cell-based;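 also: compounds tested at concentrations up to 30 µM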
T2 construct: expressed in transfected cells
T2 sequence (Q4QYD9 1-791): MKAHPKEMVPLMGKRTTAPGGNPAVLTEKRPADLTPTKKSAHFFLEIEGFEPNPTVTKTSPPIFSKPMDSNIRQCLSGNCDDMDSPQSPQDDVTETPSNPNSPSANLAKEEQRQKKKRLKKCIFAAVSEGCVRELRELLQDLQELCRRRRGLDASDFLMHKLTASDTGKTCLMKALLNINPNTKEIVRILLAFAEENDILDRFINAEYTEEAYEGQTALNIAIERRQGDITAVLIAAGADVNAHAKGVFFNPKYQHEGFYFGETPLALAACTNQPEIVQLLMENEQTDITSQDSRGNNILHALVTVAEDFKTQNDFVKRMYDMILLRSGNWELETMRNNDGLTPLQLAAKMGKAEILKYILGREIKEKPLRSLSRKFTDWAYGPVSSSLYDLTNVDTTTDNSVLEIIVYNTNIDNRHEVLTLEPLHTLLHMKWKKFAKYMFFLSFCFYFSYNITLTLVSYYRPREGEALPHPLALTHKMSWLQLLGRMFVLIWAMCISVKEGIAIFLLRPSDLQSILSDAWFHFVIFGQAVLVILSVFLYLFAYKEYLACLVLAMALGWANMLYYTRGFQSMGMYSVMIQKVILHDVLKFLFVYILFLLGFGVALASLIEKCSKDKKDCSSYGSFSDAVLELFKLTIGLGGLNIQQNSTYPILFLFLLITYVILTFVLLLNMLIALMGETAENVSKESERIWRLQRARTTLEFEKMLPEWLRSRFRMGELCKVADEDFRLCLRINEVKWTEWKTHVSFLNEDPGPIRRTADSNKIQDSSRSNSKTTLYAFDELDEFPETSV
From the text: as §1, §2, §3

[3] = molecular target: hERG (Homo sapiens, UniProt Q12809); assay: Ion channel selectivity, hERG channel current
Sequence of hERG (Q12809 whole entry): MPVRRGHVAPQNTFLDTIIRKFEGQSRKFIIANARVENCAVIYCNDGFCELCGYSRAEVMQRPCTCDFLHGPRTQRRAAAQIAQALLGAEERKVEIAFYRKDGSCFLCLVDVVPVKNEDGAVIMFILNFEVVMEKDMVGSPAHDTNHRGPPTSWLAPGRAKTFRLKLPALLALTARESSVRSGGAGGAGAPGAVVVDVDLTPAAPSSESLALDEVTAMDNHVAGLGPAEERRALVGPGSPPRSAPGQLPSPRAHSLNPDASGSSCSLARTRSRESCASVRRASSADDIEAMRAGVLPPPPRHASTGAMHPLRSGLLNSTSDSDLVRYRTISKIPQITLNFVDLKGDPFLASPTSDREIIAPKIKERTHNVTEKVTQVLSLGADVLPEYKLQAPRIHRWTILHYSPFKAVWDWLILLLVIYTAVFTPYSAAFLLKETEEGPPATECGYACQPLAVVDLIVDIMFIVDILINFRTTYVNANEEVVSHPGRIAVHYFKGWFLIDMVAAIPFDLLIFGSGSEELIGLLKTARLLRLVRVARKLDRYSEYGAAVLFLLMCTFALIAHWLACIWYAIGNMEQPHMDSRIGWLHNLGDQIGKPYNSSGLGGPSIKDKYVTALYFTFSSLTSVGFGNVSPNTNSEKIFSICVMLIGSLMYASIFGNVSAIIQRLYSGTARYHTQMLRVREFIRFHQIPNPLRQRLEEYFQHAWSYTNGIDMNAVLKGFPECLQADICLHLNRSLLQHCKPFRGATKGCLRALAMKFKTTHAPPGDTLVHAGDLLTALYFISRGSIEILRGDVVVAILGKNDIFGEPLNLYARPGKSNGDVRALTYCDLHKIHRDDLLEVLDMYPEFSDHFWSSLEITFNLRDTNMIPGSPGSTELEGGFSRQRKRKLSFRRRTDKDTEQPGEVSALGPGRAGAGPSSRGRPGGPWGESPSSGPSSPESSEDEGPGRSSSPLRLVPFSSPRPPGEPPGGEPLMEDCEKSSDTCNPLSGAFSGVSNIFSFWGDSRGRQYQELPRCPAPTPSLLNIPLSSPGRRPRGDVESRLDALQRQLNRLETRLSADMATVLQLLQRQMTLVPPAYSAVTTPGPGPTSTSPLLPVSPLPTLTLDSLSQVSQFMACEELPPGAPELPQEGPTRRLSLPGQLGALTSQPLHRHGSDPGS
Description: Compounds of interest can be tested against these channels at concentrations up to 30 μM, and the resulting data can be used to estimate IC50 for inhibition of the activity of these other ion channels.

[4] = Phase 1 inward current, read-out: P1 In (h)
[5] = Phase 1 outward current, read-out: P1 Out (h)
[6] = Phase 2 inward current, read-out: P2 In (h)
[7] = Phase 2 outward current, read-out: P2 Out (h)
[8] = Phase 1 inward current, read-out: P1 In (r)
[9] = Phase 1 outward current, read-out: P1 Out (r)
[10] = Phase 2 inward current, read-out: P2 In (r)
[11] = Phase 2 outward current, read-out: P2 Out (r)

pIC50 [1, 4]	pIC50 [1, 5]	pIC50 [1, 6]	pIC50 [1, 7]	pIC50 [2, 8]	pIC50 [2, 9]	pIC50 [2, 10]	pIC50 [2, 11]	SMILES	pIC50 [3]
≥ 6.30	≥ 6.30	≥ 6.30	≥ 6.30	≥ 6.30	≥ 6.30	–	–	CCOc1cccc(C=Cc2nc3ccccc3c(=O)n2-c2c(F)cccc2F)c1O [Compound 57]	–
≥ 6.30	≥ 6.30	≥ 6.30	≥ 6.30	≥ 6.30	≥ 6.30	≥ 6.30	≥ 6.30	CCc1cccc(CC)c1-n1c(/C=C/c2cccc(OC)c2O)nc2ccccc2c1=O [Compound 50]	≤ 4.70
≥ 6.30	≥ 6.30	≥ 6.30	≥ 6.30	≥ 6.30	≥ 6.30	–	–	CCOc1cccc(C=Cc2nc3cnccc3c(=O)n2-c2ccccc2C)c1O [Compound 31]	–
≥ 6.30	≥ 6.30	≥ 6.30	≥ 6.30	≥ 6.30	≥ 6.30	–	–	CCOc1cccc(/C=C/c2nc3cnccc3c(=O)n2-c2c(C)cccc2C)c1O [Compound 11]	≤ 4.70
≥ 6.30	≥ 6.30	≥ 6.30	≥ 6.30	≥ 6.30	≥ 6.30	≥ 6.30	≥ 6.30	COc1cccc(/C=C/c2nc3cnccc3c(=O)n2-c2c(C)cccc2Cl)c1O [Compound 16]	–
≥ 6.30	≥ 6.30	≥ 6.30	≥ 6.30	≥ 6.30	≥ 6.30	≥ 6.30	≥ 6.00	COc1cccc(/C=C/c2nc3cnccc3c(=O)n2-c2c(C)cccc2OC)c1O [Compound 14]	–
≥ 6.30	≥ 6.30	≥ 6.30	≥ 6.30	≥ 6.30	≥ 6.30	–	–	Cc1cccc(C)c1-n1c(/C=C/c2cccc(OC(F)(F)F)c2O)nc2ccccc2c1=O [Compound 55]	≤ 4.70
≥ 6.30	≥ 6.30	≥ 6.30	≥ 6.30	≥ 6.30	≥ 6.30	–	–	Cc1cccc(C)c1-n1c(/C=C/c2cccc(OC(F)(F)F)c2O)nc2cnccc2c1=O [Compound 12]	–
≥ 6.30	≥ 6.30	≥ 6.30	≥ 6.30	≥ 6.30	≥ 6.30	≥ 6.30	≥ 6.30	COc1nccc(/C=C/c2nc3cnccc3c(=O)n2-c2c(C)cccc2C)c1O [Compound 15]	–
≥ 6.30	≥ 6.30	≥ 6.30	≥ 6.30	≥ 6.30	≥ 6.30	≥ 6.30	≥ 6.30	CCOc1cccc(C=Cc2nc3ccccc3c(=O)n2-c2c(C)cccc2C)c1O [Compound 49]	≤ 4.70
≥ 6.30	≥ 6.30	≥ 6.30	≥ 6.30	≥ 6.30	≥ 6.30	–	–	Cc1cccc(C)c1-n1c(/C=C/c2cccc(OC(C)C)c2O)nc2ccccc2c1=O [Compound 51]	–
–	–	≥ 6.30	≥ 6.30	≥ 6.30	≥ 6.30	≥ 6.30	≥ 6.30	COc1cccc(C=Cc2nc3cnccc3c(=O)n2-c2c(C)cccc2C)c1O [Compound 8]	≤ 4.70

SMILES	pIC50 [1, 4]	pIC50 [1, 5]	pIC50 [1, 6]	pIC50 [1, 7]	pIC50 [2, 8]	pIC50 [2, 9]	pIC50 [2, 10]	pIC50 [2, 11]	pIC50 [3]
COc1cccc(/C=C/c2nc3ccccc3c(=O)n2-c2c(F)cccc2F)c1O [Compound 56]	≥ 6.30	≥ 6.30	≥ 6.30	≥ 6.30	≥ 6.30	≥ 6.30	≥ 6.30	≥ 6.30	–
COc1cccc(/C=C/c2nc3ccccc3c(=O)n2-c2c(C)ccnc2C)c1O [Compound 32]	≥ 6.30	≥ 6.30	≥ 6.30	≥ 6.30	≥ 6.00	≥ 6.00	≥ 6.30	≥ 6.00	–
COc1cccc(/C=C/c2nc3ccccc3c(=O)n2-c2c(C)cncc2C)c1O [Compound 33]	≥ 6.30	≥ 6.30	≥ 6.30	≥ 5.30	≥ 6.30	≥ 6.30	≥ 6.30	≥ 6.30	–
CCOc1nccc(/C=C/c2nc3ccccc3c(=O)n2-c2ccccc2C)c1O [Compound 43]	≥ 6.30	≥ 6.30	≥ 6.30	≥ 6.30	≥ 6.30	≥ 6.30	≥ 6.30	≥ 6.30	–
